pIC50: −log10 of the molar value. Values joined by “and” are separate entries in the source; they are usually repeats but may differ in a detail not shown here. Equal entries are not always repeated. Where two headings read alike, the source gives them in different places.
Tests used:
Cox-1 = target: T1, Cox-1 (Ovis aries, UniProt P05979); assay: inhibiting activity to COX-1 (TMPD colorimetric, 590 nm); format: biochemical; settings: tested at 300, 100, 30, 10 μmol/L (positive control 100, 30, 10, 3)
T1 construct: purchased Cayman, USA
T1 sequence (P05979 25-600): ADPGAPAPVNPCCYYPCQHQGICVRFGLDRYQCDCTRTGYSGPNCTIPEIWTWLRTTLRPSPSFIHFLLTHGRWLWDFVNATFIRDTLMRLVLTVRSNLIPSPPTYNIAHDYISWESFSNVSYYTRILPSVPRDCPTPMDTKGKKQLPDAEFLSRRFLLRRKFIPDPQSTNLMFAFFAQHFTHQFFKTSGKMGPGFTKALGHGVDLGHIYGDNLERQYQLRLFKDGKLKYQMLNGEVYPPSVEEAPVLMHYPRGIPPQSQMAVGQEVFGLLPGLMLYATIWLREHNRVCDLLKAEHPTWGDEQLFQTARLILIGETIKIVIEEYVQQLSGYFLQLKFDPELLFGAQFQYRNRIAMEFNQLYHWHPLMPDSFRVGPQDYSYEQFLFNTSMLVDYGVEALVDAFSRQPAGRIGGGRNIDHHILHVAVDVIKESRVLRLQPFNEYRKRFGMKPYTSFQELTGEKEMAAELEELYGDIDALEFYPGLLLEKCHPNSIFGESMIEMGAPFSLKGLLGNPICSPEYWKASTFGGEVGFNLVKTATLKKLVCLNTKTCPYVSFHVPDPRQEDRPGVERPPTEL
Procedure: 2.5.1 The Inhibiting Activity to COX-1/COX-2
(1) In 220 ul of reaction system, mixed buffer (1×), heme, COX-1/COX-2, and the compound to be tested, are sequentially added, and are incubated for 5 minutes at 25° C.;
(2) Adding chromogenic substrate (TMPD) and arachidonic acid;
(3) Carefully shaking the plate for several seconds, then incubating for 15 minutes at 25° C.;
(4) Detecting absorption value at 590 nm.
Fitting data of concentration (μmol/L) and corresponding inhibition rate (%) via Microsoft EXCEL software to get a trendline, so as to obtain the half-effective inhibiting concentration (IC50) of each tested enzyme.

[1] = background statement; cited from earlier work
SD rats = assay: toxicity test in SD rats, four-week consecutive intragastric administration; settings: for animals dead during 4 weeks administration: 10 rats per group; for nontoxic dosage: four-week consecutive intragastric administration
Procedure: 2. […] The tested samples are formulated into suspensions by milling with 0.5% CMC—Na; intragastric administration every day (10 ml/kg) for consecutive 4 weeks; on each day, after administration, the general conditions of the animals are observed, and weight and amount of ingestion are determined once every week. In 24 hours after the last administration, the rats are fasted overnight, blood samples are withdrawn via femoral arteries, and the rats are dissected, and the indexes of blood cytology and biochemics, gloss anatomy and histopathological examination are preformed.

[2] = tested on: hot plate pain threshold of mice; assay: hot plate pain threshold of mice; format: in vivo; settings: 40 mg/kg ip, 0 h (base threshold before administration)
[3] = pharmacokinetic study in rats of ig administration; format: in vivo
[4] = ig 50 mg/kg, individual animals A-F, listed as R-type isomer

CC(C(=O)O)c1ccc2c(c1)CC(=O)c1ccccc1S2 (racemic) [RS, 10,11-dihydro-alpha-methyl-10-oxo-dibenzo[b,f]tiazem-2-acetic acid, reference compound]
pIC50 (Cox-1): 3.82 | abirritation, times more than Indomethacin, Diclofenac Sodium, Ketoprofen, mefenamic acid [1]: 3-28 times | animals dead during 4 weeks administration (SD rats; 80 mg/kg ig daily): 2 animals | gastrointestinal tract toxicity (SD rats; four-week ig, rats, S 80, 40, RS 80, R 480, 240, 120, R:S=6:1 320, 160, 80 mg/kg): produces significant gastrointestinal tract toxicity | nontoxic dosage (SD rats; rats): 40 mg/kg

C[C@@H](C(=O)O)c1ccc2c(c1)CC(=O)c1ccccc1S2 [R, R-10,11-dihydro-alpha-methyl-10-oxo-dibenzo[b,f]tiazem-2-acetic acid]
pIC50 (Cox-1): < 3.52 | pain threshold(s) 0 h [2]: 15.2 ± 15.1 s | nontoxic dosage (SD rats; rats): 240 mg/kg | transformation between R-isomer and S-isomer during monitoring of blood drug level ([3]; ig): No transformation between R-isomer and S-isomer is detected | AUC(0-48) [3, 4]: 723.9 µg·h/mL and 239.0 µg·h/mL and 330.6 µg·h/mL and 814.3 µg·h/mL and 324.2 µg·h/mL and 1336.0 µg·h/mL | AUG(0-∞) [3, 4]: 772.8 mg/L*h and 337.7 mg/L*h and 818.7 mg/L*h and 325.6 mg/L*h and 1374.1 mg/L*h | CLz/F [3, 4]: 0.1 L/h/kg (3×) and 0.2 L/h/kg (2×) and 0.0 L/h/kg | Cmax [3, 4]: 260.8 µg/mL and 98.9 µg/mL and 67.8 µg/mL and 223.1 µg/mL and 131.5 µg/mL and 184.2 µg/mL | MRT(0-48) [3, 4]: 7.4 h and 2.2 h and 9.1 h and 5.4 h and 5.0 h and 10.3 h | Tmax [3, 4]: 1.0 h (2×) and 0.5 h (2×) and 0.3 h (2×) | t1/2z [3, 4]: 10.0 h and 2.2 h and 9.8 h and 7.8 h and 4.9 h and 9.6 h | AUG(0-∞) Mean ([3]; ig 50 mg/kg, mean of A-F): 647.5 mg/L*h | CLz/F Mean ([3]; ig 50 mg/kg, mean of A-F): 1.7 mL/min/kg | t1/2z Mean ([3]; ig 50 mg/kg, mean of A-F): 7.4 h | AUC(0-t) ([3]; rat, plasma, po, 50 mg/kg, ig 50 mg/kg, mean of A-F, read-out: AUC(0-48) Mean): 628 µg·h/mL | Cmax ([3]; rat, plasma, po, 50 mg/kg, ig 50 mg/kg, mean of A-F, read-out: Cmax Mean): 161 µg/mL | MRT last ([3]; rat, plasma, po, 50 mg/kg, ig 50 mg/kg, mean of A-F, read-out: MRT(0-48) Mean): 6.6 h | Tmax ([3]; rat, plasma, po, 50 mg/kg, ig 50 mg/kg, mean of A-F, read-out: Tmax Mean): 0.6 h | Vd/F ([3]; rat, plasma, po, 50 mg/kg, ig 50 mg/kg, mean of A-F, read-out: Vz/F Mean): 1 L/kg

C[C@H](C(=O)O)c1ccc2c(c1)CC(=O)c1ccccc1S2 [S, S-10,11-dihydro-alpha-methyl-10-oxo-dibenzo[b,f]tiazem-2-acetic acid]
pIC50 (Cox-1): 3.73 | animals dead during 4 weeks administration (SD rats; 40 mg/kg ig daily): one | animals dead during 4 weeks administration (SD rats; 80 mg/kg ig daily): four | nontoxic dosage (SD rats; rats): 20 mg/kg

Reference: patent publication US20110224276A1, “OPTICAL ISOMER OF PHENYLPROPIONIC ACID AND ITS MEDICINAL USE” (priority 2008, published 2011)
